From ChEMBL document CHEMBL1156829 (Proc Natl Acad Sci U S A, 2008)

How the values were obtained:
[1] = test system: Plasmodium falciparum; test: NOVARTIS: Inhibition of Plasmodium falciparum 3D7 (drug-susceptible) proliferation in erythrocyte-based infection assay; type: functional, organism-based; settings: Plasmodium falciparum, 3D7
[2] = test system: Plasmodium falciparum; test: NOVARTIS: Inhibition of Plasmodium falciparum W2 (drug-resistant) proliferation in erythrocyte-based infection assay; type: functional, organism-based; settings: Plasmodium falciparum, W2; read-out: EC50
[3] = NOVARTIS: Cytotoxicity against human hepatocellular carcinoma cell line (Huh7); type: toxicity, cell-based, Huh-7; settings: Huh7 cells (hepatocellular carcinoma cell line)

Compound | EC50 [1] | EC50 [2] | CC50 [3]
CC(C)NCC(O)Cn1c2ccc(Cl)cc2c2cc(Cl)ccc21 (configuration not stated) | 183 nM | 38.9 nM | 4.87 µM
CC1CCCN(Cc2nnnn2-c2ccc(Cl)cc2)C1 (configuration not stated) | > 1010 nM | > 1250 nM | > 10 µM
CCOc1ccc(-n2cc(-c3ccccc3)c3c(SCc4cc(C)ccc4C)ncnc32)cc1 | 2010 nM | > 1250 nM | > 10 µM
CN(C)c1ccc(N2C(N)=NC(N)=NC23CCCC3)cc1 | 244 nM | > 1570 nM | > 10 µM
Cc1ccn2c(NC(C)(C)CC(C)(C)C)c(-c3ccccc3OC(=O)c3ccccc3F)nc2c1 | 951 nM | 6.35 nM | > 10 µM
C/C=C/C(C(=O)NCCCC)N1C(=O)c2cc(NC(C)=O)ccc2NC(=O)[C@@H]1CCC(=O)O (some centres not stated) | > 1500 nM | 49.9 nM | 0.442 µM
NC(=NOC(=O)c1ccccc1I)c1ccccn1 | 6030 nM | 831 nM | 63 µM
COc1cc(Br)c(CCNC(=O)Cc2cc(OC)c(OC)cc2Br)cc1OC | > 8770 nM | > 8680 nM | > 100 µM
Brc1ccc(-c2n(Cc3ccccc3)c3ccccc3[n+]2Cc2ccccc2)o1 | 167 nM | 260 nM | 11 µM
CC1=C(C(=O)OC(C)C)C(c2ccccc2F)C2=C(CC(c3ccc(Cl)cc3)CC2=O)N1 (configuration not stated) | 109 nM | 35.1 nM | > 100 µM
CCOC(=O)C1=C(C)N(CCNc2ncc(C(F)(F)F)cc2Cl)C(=O)CC1 | 7670 nM | 8350 nM | > 100 µM
CCN1CCN(Cc2cc(Cl)cc(Cl)c2O)CC1 | 3000 nM | 529 nM | > 100 µM
CC(=O)c1c(C)n(CC(=O)Nc2cccc(C)c2)c2ccccc12 | 329 nM | 248 nM | > 100 µM
CCN1CCC(NCCC(c2ccccc2)c2ccccc2)CC1 | 280 nM | 66 nM | 3.61 µM
COc1ccc(OC)c(-c2ccc(O)c(CNCC3CC4C=CC3C43CC3)c2)c1 (configuration not stated) | 350 nM | 39.8 nM | 20.6 µM
CCC(C)NC(=O)CSc1nnc(-c2cccnc2)n1-c1ccc(Cl)cc1 (configuration not stated) | > 1520 nM | > 1090 nM | > 10 µM
COC(=O)C1=C(C)N/C(=C\c2cc(C)n(-c3cc(C)ccc3OC)c2C)C1=O | 400 nM | > 1250 nM | > 10 µM
COc1ccc(-c2nc(-c3ccc4c(c3)-c3cc(-c5[nH]c(-c6ccc(OC)cc6)nc5-c5ccccc5)ccc3C4=O)c(-c3ccccc3)[nH]2)cc1 | 7300 nM | 3750 nM | 94.5 µM
CC(C)c1ccc(NC(=O)/C=C/c2ccccc2Cl)cc1 | 186 nM | 109 nM | > 10 µM
c1ccc(C2=Nc3ccccc3C(c3ccccc3)(c3ccccc3)N2)cc1 | 754 nM | 590 nM | 39.4 µM
Cc1ccc(NC(=O)N(CCCN(C)C)Cc2cc3cc4c(cc3[nH]c2=O)OCO4)cc1 | 1300 nM | 236 nM | > 100 µM
CSc1ccccc1CN1CCc2nc(N3CCCCC3)sc2C1 | 369 nM | 38.1 nM | > 10 µM
CC(O)c1ccc(NC(=O)c2cnn3c2NC(c2ccco2)CC3C(F)(F)F)cc1 (configuration not stated) | > 1250 nM | > 675 nM | > 10 µM

Compound | EC50 [1] | EC50 [2] | CC50 [3]
NCCCCCCNC(=S)Nc1ccccc1 | > 1410 nM | > 859 nM | > 10 µM
CC1=C(C(=O)Nc2ccccn2)C(c2ccc(O)cc2)n2ncnc2N1 (configuration not stated) | > 1250 nM | 561 nM | > 10 µM
COc1ccc2c(c1)c1c3n2CCN(Cc2ccccc2)C3=[N+](C)CC1 | 442 nM | 1340 nM | > 10 µM
CCOc1cc(C2C(C(=O)OC)=CNC=C2C(=O)OC)cc(Br)c1OCC | 388 nM | 277 nM | > 100 µM
CCc1cc(C(=O)N2CCC[C@@H]3CN(C(=O)c4ccc(F)cc4)CC[C@@H]32)n(C)n1 | > 12500 nM | 4670 nM | > 100 µM
CCOC(=O)c1c(CNc2ccncc2)n(C)c2cc(Br)c(OC(C)=O)cc12 | 257 nM | 310 nM | > 100 µM
O=C(C1CC1)N1CCOc2c(cc(-c3csc4ccccc34)cc2OCCc2ccccn2)C1 | 711 nM | 594 nM | 68.2 µM
CC(C)OC(=O)NC(Nc1ccccc1)C(Cl)(Cl)Cl (configuration not stated) | > 1080 nM | > 1080 nM | > 10 µM
NC(=S)NN=Cc1cc([N+](=O)[O-])ccc1O | 68.6 nM | 52 nM | > 100 µM
CCOC(=O)C1=C(C)NC2=C(C(=O)CC(c3ccc(OC)c(OC)c3)C2)C1c1ccccc1F (configuration not stated) | 27.6 nM | 26.4 nM | > 100 µM
Cc1ccc(C=NNC(=O)c2nnn(-c3nonc3N)c2-c2ccc([N+](=O)[O-])cc2)cc1 | 204 nM | 503 nM | > 73 µM
COc1ccc(C(OCC(=O)N2CCSCC2)c2ccncc2Cl)cc1 (configuration not stated) | > 12400 nM | 1450 nM | > 100 µM
O=C(Nc1ccc(C2=NCCN2)c(Cl)c1)c1ccc(C(=O)Nc2ccc(C3=NCCN3)c(Cl)c2)cc1 | 554 nM | 234 nM | > 10 µM
CCOC(=O)CCCSc1nc(-c2cccs2)cc(C(F)(F)F)c1C#N | 352 nM | 198 nM | > 10 µM
CCOc1cccc(C2=Nc3cc(C(=O)NC(C)C)ccc3CN2CC2CCCCC2)c1 | > 1250 nM | 26.7 nM | > 10 µM
CSc1ccc(/C=C/C(=O)NC(=O)c2ccccc2O)cc1 | 127 nM | 131 nM | > 10 µM
CCCCCCN(C(=O)c1ccc2c(c1)OCO2)C(CC)c1nc2ccccc2c(=O)n1-c1ccccc1OC (configuration not stated) | 862 nM | 647 nM | > 4.51 µM
CN1CCCC1CCNc1ncc(C(=O)NCCc2ccccc2)c(NCC2CCCCC2)n1 (configuration not stated) | 598 nM | 1340 nM | > 10 µM
Oc1cccc(-c2cncc(-c3cccnc3)n2)c1 | 1300 nM | 1290 nM | > 10 µM
COc1ccc(C[n+]2cc(-c3ccc(Cl)cc3)n3ccccc32)cc1 | 413 nM | 524 nM | > 100 µM
CCOC(=O)C1=C(C)NC2=C(C(=O)CC(c3ccc(OC)cc3)C2)C1c1ccsc1 (configuration not stated) | 302 nM | 62 nM | > 100 µM
O=C(N1CCN(c2ccc(C(F)(F)F)cc2[N+](=O)[O-])CC1)C(Cl)(Cl)Cl | 263 nM | 86.6 nM | > 95 µM
C[n+]1c(C=Cc2ccc(Cl)c(Cl)c2)ccc2ccccc21 | 524 nM | 1760 nM | 5.37 µM

Compound | EC50 [1] | EC50 [2] | CC50 [3]
CCN1CCN(c2cc(C)c3cc(NC(=O)c4cncc(Br)c4)ccc3n2)CC1 | 265 nM | 411 nM | 19.4 µM
C=CCOc1cccc(C(Nc2cccc(C)n2)c2ccc3cccnc3c2O)c1 (configuration not stated) | 5750 nM | 1560 nM | > 69.4 µM
CCN(CC)c1cc2oc3cc(=[N+](CC)CC)ccc-3nc2c2ccccc12 | 865 nM | 826 nM | 39.8 µM
COc1ccc(C2C(C(N)=O)=C(C)Nc3ncnn32)cc1OC (configuration not stated) | 380 nM | 1150 nM | > 10 µM
COc1ccc(Cn2c(=S)[nH]c3ccsc3c2=O)cc1 | > 1430 nM | 1100 nM | > 10 µM
CC(=O)N(C1=C(N2CCCCC2)C(=O)c2ccccc2C1=O)c1ccccc1C | 34 nM | 18.1 nM | 20.2 µM
COc1cccc(CNC(=O)Cn2ncc3c(=O)oc4ccc(C)cc4c32)c1 | > 1730 nM | 1760 nM | > 10 µM
Oc1ccc(Nc2nc(N3CCCC3)c3ccccc3n2)cc1 | 584 nM | 926 nM | > 10 µM
Cc1ccc(C(=O)c2c(C)oc3ccc(O)cc23)cc1 | > 1250 nM | > 839 nM | > 10 µM
CC(C)CNc1nc(NCCC2CCCN2C)ncc1C(=O)NCc1ccccc1 (configuration not stated) | 775 nM | > 1250 nM | > 10 µM
OC(CN1CCN(CC=Cc2ccccc2)CC1)Cn1c2ccc(Br)cc2c2cc(Br)ccc21 (configuration not stated) | 1960 nM | 426 nM | > 54.1 µM
COC(=O)C1=C(C)NC2=C(C(=O)CC(c3ccccc3Cl)C2)C1c1ccc([N+](=O)[O-])cc1 (configuration not stated) | 114 nM | 105 nM | > 100 µM
COc1cccc(-c2ccc(O)c(CNCC3CC4C=CC3C43CC3)c2)n1 (configuration not stated) | 153 nM | 19.9 nM | > 85.9 µM
Cc1nc(-c2ccc[n+](C)c2)sc1C(=O)/C=C/c1ccc(Cl)cc1 | 283 nM | 200 nM | > 10 µM
CC[n+]1c(C=Cc2ccc(C)cc2)ccc2ccccc21 | 2990 nM | 2700 nM | 20.9 µM
CCCc1cc(-c2onc(C)c2-c2ccc(C(=O)OCC)o2)c(O)cc1OC | 413 nM | 346 nM | 18.5 µM
Cc1ccc(OCC(=O)Nc2cccc(C(=O)O)c2)c(Br)c1 | > 1250 nM | > 34.9 nM | > 10 µM
O=C(c1ccccc1)N1CCN(c2ccccc2NC(=O)C(Cl)(Cl)Cl)CC1 | 538 nM | 425 nM | > 100 µM
COc1ccc(Nc2nc(-c3cc4cc(OC)ccc4oc3=O)cs2)c(OC)c1 | > 12500 nM | > 7470 nM | > 100 µM
COC(=O)c1c(S(=O)(=O)NCc2cccc(Cl)c2)sc2c1CCN(C(=O)C1CCCO1)C2 (configuration not stated) | > 608 nM | > 360 nM | > 10 µM
CC(=O)N(C1=C(N2CCCCC2)C(=O)c2ccccc2C1=O)c1cccc(Cl)c1 | 239 nM | 375 nM | 32 µM
N=c1n(Cc2ccccc2)c2ccccc2n1CC(O)c1ccc(Br)cc1 (configuration not stated) | 254 nM | 101 nM | 21.8 µM
CN(C)CCCNc1ncc(C(=O)NCCc2ccccc2)c(NCC2CCCCC2)n1 | 1240 nM | > 1250 nM | > 10 µM
